In patent US20120220604A1, “PIPERAZINYL-ALKYL-BENZOIMIDAZOL-2-ONE DERIVATIVES AND THEIR USE AS MONOAMINE NEUROTRANSMITTER RE-UPTAKE INHIBITORS” (NeuroSearch A/S, priority 2009, published 2012) one finds melting point and IC50 data, which are given here for ten molecules.

The target of data set [1] is T1, reuptake of serotonine (5-HT) in synaptosomes (Rattus norvegicus, UniProt P31652).
T1 construct: in synaptosomes as described in WO 97/16451 (NeuroSearch A/S); from tissue
As to the kind of experiment: Inhibition of 5-HT reuptake in synaptosomes. It counts as biochemical. The settings on record: 3H-5-HT, read-out: 5-HT-uptake IC50. From the text:
(§1) Compounds of the invention may be tested for their ability to inhibit reuptake of the monoamines dopamine, noradrenaline and serotonin in synaptosomes e.g. such as described in WO 97/30997 (NeuroSearch A/S) or WO 97/16451 (NeuroSearch A/S). Based on the balanced activity observed in these tests the compound of the invention is considered useful for the treatment, prevention or alleviation of a disease or a disorder or a condition of a mammal, including a human, which disease, disorder or condition is responsive to inhibition of monoamine neurotransmitter re-uptake in the central nervous system.
(§2) Compounds were tested for their ability to inhibit the reuptake of the monoamine neurotransmitters dopamine (DA) noradrenaline (NA) and serotonine (5-HT) in synaptosomes as described in WO 97/16451 (NeuroSearch A/S).
(§3) The test values are given as IC50 (the concentration (μM) of the test substance which inhibits the specific binding of ^3H-DA, ^3H-NA, or ^3H-5-HT by 50%).

Data set [2] has as its target T2, reuptake of dopamine (DA) in synaptosomes (Rattus norvegicus, UniProt P23977).
T2 construct: in synaptosomes as described in WO 97/16451 (NeuroSearch A/S); from tissue
Nature of the data set: Inhibition of dopamine reuptake in synaptosomes. The settings on record: 3H-DA, read-out: DA-uptake IC50. It counts as biochemical.
Source text: as §1, §2, §3

Data set [3] addresses T3, reuptake of noradrenaline (NA) in synaptosomes (Rattus norvegicus, UniProt Q63380).
T3 construct: in synaptosomes as described in WO 97/16451 (NeuroSearch A/S); from tissue
As to the kind of experiment: Inhibition of noradrenaline reuptake in synaptosomes. It counts as biochemical. The settings on record: 3H-NA, read-out: NA-uptake IC50.
Source text: as §1, §2, §3

Molecules are shown by their SMILES. Where a name gives a salt, the structure may show the parent alone.

T1 sequence (P31652 whole entry): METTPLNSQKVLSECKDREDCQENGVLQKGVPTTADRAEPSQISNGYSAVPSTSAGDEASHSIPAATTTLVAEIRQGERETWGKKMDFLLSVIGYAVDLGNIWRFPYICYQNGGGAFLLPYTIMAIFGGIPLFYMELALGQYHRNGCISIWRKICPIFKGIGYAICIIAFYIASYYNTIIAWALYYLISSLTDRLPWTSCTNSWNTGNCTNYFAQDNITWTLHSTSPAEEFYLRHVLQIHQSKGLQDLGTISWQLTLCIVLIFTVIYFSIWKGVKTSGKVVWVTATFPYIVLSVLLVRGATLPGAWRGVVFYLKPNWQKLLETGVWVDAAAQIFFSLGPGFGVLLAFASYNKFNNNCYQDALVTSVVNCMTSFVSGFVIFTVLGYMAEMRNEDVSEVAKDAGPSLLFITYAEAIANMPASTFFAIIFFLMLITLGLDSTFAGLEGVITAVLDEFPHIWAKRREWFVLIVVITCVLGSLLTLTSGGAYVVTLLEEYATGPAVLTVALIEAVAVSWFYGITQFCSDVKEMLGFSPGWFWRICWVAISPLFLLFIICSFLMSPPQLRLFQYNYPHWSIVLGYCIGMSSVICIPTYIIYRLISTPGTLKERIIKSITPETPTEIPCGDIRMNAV
T2 sequence (P23977 whole entry): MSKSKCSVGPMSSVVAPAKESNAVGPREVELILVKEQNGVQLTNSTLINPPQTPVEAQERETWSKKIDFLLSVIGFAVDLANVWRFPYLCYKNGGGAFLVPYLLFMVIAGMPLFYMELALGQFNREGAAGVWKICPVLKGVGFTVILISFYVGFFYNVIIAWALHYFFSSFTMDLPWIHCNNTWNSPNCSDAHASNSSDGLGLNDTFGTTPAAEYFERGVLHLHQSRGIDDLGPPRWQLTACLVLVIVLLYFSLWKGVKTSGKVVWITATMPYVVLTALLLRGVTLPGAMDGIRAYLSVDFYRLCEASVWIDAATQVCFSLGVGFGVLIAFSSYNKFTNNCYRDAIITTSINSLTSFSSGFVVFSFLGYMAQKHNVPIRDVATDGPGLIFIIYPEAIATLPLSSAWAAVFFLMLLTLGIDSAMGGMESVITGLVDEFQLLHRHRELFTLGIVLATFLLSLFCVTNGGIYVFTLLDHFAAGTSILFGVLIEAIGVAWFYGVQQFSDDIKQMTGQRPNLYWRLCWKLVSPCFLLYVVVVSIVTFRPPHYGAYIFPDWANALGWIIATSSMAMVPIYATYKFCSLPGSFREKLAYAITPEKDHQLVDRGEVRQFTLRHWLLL
T3 sequence (Q63380 1-617): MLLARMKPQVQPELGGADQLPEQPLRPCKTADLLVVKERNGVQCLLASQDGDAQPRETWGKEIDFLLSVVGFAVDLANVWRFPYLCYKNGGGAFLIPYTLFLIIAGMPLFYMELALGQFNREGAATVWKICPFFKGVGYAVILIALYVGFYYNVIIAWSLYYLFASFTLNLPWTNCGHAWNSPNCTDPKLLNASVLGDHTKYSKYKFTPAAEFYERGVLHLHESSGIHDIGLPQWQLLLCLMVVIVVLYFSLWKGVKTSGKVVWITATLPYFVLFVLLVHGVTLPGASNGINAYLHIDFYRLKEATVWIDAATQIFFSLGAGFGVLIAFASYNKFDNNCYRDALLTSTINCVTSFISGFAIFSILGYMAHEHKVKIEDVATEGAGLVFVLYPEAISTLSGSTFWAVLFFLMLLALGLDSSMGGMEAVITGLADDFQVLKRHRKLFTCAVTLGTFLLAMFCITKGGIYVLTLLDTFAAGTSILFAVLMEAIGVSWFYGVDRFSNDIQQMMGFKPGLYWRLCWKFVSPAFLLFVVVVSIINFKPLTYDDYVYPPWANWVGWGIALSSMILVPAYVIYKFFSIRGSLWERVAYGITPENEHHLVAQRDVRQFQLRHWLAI

On to `O=c1n(CCN2CCN(c3ccc4[nH]ccc4c3)CC2)c2ccccc2n1C1=CCCCC1` (as salt: fumaric acid salt) [Compound A7, 1-Cyclohex-1-enyl-3-{2-[4-(1H-indol-5-yl)-piperazin-1-yl]-ethyl}-1,3-dihydro-benzoimidazol-2-one], for which the melting point fell in the range of 92 to 94 °C.
Take `O=c1n(CCN2CCN(c3ccc4[nH]ccc4c3)CC2)c2ccccc2n1C1=CCCCC1` [Compound A7, 1-Cyclohex-1-enyl-3-{2-[4-(1H-indol-5-yl)-piperazin-1-yl]-ethyl}-1,3-dihydro-benzoimidazol-2-one]: the concentration for half-maximal inhibition (IC50) in data set [1] came to 190 nM; in data set [2] it was 2300 nM; in data set [3], 1200 nM.
With `Cn1ccc2cc(N3CCN(CCn4c(=O)n(C5=CCCCC5)c5ccccc54)CC3)ccc21` [Compound A2, 1-Cyclohex-1-enyl-3-{2-[4-(1-methyl-1H-indol-5-yl)-piperazin-1-yl]-ethyl}-1,3-dihydro-benzoimidazol-2-one], the IC50 in data set [1] was found to be 8.1 nM; in data set [2] it was 1100 nM; in data set [3], 3000 nM.
Take `C=C(C)n1c(=O)n(CCN2CCN(c3ccc4ccn(C)c4c3)CC2)c2ccccc21` [Compound A4, 1-Isopropenyl-3-{2-[4-(1-methyl-1H-indol-6-yl)-piperazin-1-yl]-ethyl}-1,3-dihydro-benzoimidazol-2-one]: the IC50 came out at 4.8 nM in data set [1], 1300 nM in data set [2] and 62 nM in data set [3].
Take `C=C(C)n1c(=O)n(CCN2CCN(c3ccc4[nH]ccc4c3)CC2)c2ccccc21` [Compound A8, 1-{2-[4-(1H-Indol-5-yl)-piperazin-1-yl]-ethyl}-3-isopropenyl-1,3-dihydro-benzoimidazol-2-one]: the IC50 was 340 nM in data set [1], > 1000 nM in data set [2] and 290 nM in data set [3].
The molecule `C=C(C)n1c(=O)n(CCN2CCN(c3ccc4[nH]ccc4c3)CC2)c2ccccc21` (as salt: fumaric acid salt) [Compound A8, 1-{2-[4-(1H-Indol-5-yl)-piperazin-1-yl]-ethyl}-3-isopropenyl-1,3-dihydro-benzoimidazol-2-one] registered a melting point of 112 to 114 °C.
In the case of `C=C(C)n1c(=O)n(CCN2CCN(c3ccc4c(ccn4C)c3)CC2)c2ccccc21` [Compound A1, 1-Isopropenyl-3-{2-[4-(1-methyl-1H-indol-5-yl)-piperazin-1-yl]-ethyl}-1,3-dihydro-benzoimidazol-2-one], the IC50 is 14 nM in data set [1], > 1000 nM in data set [2] and 610 nM in data set [3].
The molecule `C=C(C)n1c(=O)n(CCN2CCN(c3ccc4cc[nH]c4c3)CC2)c2ccccc21` [Compound A5] registered a melting point of 195 to 197 °C. Further, the IC50 in data set [1] amounted to 3.9 nM. In addition, in data set [2], the IC50 was found to be 1300 nM. For the same molecule, the IC50 in data set [3] was 110 nM.
As for `Cn1ccc2ccc(N3CCN(CCn4c(=O)n(C5=CCCCC5)c5ccccc54)CC3)cc21` [Compound A3, 1-Cyclohex-1-enyl-3-{2-[4-(1-methyl-1H-indol-6-yl)-piperazin-1-yl]-ethyl}-1,3-dihydro-benzoimidazol-2-one], the IC50 in data set [1] turned out to be 3.3 nM; in data set [2] it was 1700 nM; in data set [3] it was 1100 nM.
In turn, `O=c1n(CCN2CCN(c3ccc4cc[nH]c4c3)CC2)c2ccccc2n1C1=CCCCC1` [Compound A6, 1-Cyclohex-1-enyl-3-{2-[4-(1H-indol-6-yl)-piperazin-1-yl]-ethyl}-1,3-dihydro-benzoimidazol-2-one] returned a melting point of 171 to 173 °C. The IC50 in data set [1] stood at 4.4 nM. For the same molecule, the IC50 in data set [2] was found to be 27 nM. Also, the IC50 in data set [3] came to 160 nM.

A word on the melting point: it is the temperature, or range, at which the solid turns liquid. A word on the IC50: it is the concentration at which inhibition is half-maximal.
